A value given as a limit tells only on which side of the number the result lay.

For one assay, the target named is c-Met (Homo sapiens, UniProt P08581). Briefly: c-Met Inhibition Assay, coupled enzyme system. In kind it is biochemical. The conditions noted are these: enzyme inhibition data (Ki), Table 11. The essentials: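 Pyruvate kinase/lactate dehydrogenase-coupled NADH assay in HEPES pH 7.5 with 80 nM c-Met, 200 μM ATP and 10 μM polyGluTyr at 30° C. Compound (0.006–12.5 μM final, 12-point) preincubated 10 min before ATP start; rates over 10 min gave Ki.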
c-Met, sequence (P08581 25-1390): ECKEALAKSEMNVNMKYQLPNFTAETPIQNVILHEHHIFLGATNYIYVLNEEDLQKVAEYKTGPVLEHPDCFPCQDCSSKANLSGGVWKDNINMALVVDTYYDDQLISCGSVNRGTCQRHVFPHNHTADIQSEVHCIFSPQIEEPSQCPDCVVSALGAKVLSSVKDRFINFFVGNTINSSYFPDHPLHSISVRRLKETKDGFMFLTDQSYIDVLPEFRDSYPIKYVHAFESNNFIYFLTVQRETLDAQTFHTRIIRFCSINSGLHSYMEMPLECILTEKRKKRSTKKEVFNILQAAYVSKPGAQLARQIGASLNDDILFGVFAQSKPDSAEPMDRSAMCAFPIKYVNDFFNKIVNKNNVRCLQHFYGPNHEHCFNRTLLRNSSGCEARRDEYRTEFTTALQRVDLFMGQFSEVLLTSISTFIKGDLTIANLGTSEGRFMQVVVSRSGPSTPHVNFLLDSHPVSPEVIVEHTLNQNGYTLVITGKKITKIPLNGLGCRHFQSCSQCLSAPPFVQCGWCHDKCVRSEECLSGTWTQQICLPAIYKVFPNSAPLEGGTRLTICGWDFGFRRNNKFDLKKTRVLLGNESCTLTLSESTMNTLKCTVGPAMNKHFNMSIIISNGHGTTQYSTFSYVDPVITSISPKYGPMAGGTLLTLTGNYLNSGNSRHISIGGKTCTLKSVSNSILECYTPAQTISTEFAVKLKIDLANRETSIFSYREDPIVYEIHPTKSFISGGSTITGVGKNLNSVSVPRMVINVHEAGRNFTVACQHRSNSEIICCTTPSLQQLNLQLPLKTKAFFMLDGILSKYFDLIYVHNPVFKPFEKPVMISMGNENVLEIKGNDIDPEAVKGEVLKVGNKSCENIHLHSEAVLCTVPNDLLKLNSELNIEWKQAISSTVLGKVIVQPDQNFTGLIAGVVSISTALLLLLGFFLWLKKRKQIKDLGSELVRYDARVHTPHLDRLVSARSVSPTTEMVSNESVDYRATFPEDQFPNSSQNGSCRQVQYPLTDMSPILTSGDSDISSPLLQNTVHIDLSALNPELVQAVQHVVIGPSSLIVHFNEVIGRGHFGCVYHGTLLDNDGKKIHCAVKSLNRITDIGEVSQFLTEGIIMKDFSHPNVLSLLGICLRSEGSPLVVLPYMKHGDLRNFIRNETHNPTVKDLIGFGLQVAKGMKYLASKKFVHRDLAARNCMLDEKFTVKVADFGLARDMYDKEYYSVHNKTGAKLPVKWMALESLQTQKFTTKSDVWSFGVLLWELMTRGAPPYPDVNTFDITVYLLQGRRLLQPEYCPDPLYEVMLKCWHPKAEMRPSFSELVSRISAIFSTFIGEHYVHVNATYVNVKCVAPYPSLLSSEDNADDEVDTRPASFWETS

The next assay deals with T1, Aurora-2 (Homo sapiens, UniProt O14965).
T1 sequence (O14965 1-403): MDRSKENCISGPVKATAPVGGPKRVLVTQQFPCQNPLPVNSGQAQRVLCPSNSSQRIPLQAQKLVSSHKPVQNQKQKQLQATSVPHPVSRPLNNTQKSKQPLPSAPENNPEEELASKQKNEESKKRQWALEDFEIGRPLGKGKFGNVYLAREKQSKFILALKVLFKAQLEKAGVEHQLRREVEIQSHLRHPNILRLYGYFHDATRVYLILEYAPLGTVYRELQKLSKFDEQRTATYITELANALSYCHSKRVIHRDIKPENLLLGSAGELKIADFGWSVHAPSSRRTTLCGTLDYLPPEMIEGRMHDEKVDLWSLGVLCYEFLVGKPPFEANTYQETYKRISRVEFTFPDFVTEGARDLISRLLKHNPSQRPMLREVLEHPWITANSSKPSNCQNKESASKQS
Briefly: Aurora-A (Aurora-2) Inhibition Assay, coupled enzyme assay. In kind it is biochemical. The conditions noted are these: enzyme inhibition data (Ki), Table 11; read-out: AurA Ki. How it is done:
Compounds are screened for their ability to inhibit Aurora-2 using a standard coupled enzyme assay (Fox et al., Protein Sci., (1998) 7, 2249). Assays are carried out in a mixture of 100 mM Hepes (pH7.5), 10 mM MgCl2, 1 mM DTT, 25 mM NaCl, 2.5 mM phosphoenolpyruvate, 300 μM NADH, 30 μg/ml pyruvate kinase and 10 μg/ml lactate dehydrogenase. Final substrate concentrations in the assay are 400 μM ATP (Sigma Chemicals) and 570 μM peptide (Kemptide, American Peptide, Sunnyvale, Calif.). Assays are carried out at 30° C. and in the presence of 40 nM Aurora-2.
An assay stock buffer solution is prepared containing all of the reagents listed above, with the exception of Aurora-2 and the test compound of interest. 55 μl of the stock solution is placed in a 96 well plate followed by addition of 2 μl of DMSO stock containing serial dilutions of the test compound (typically starting from a final concentration of 7.5 μM). The plate is preincubated for 10 minutes at 30° C. and the reaction initiated by addition of 10 μl of Aurora-2. Initial reaction rates are determined with a Molecular Devices SpectraMax Plus plate reader over a 10 minute time course. IC50 and Ki data are calculated from non-linear regression analysis using the Prism software package (GraphPad Prism version 3.0cx for Macintosh, GraphPad Software, San Diego Calif., USA).

On to `COc1ccccc1-c1cnc2c(-c3ccccn3)c(N)nn2c1` [Compound V-14], for which the Ki on c-Met and on Aurora-2 was 500 to 5000 nM throughout.

As to `CS(=O)(=O)Nc1cccc(-c2cnc3c(-c4ccccn4)c(N)nn3c2)c1` [Compound V-18], the Ki at c-Met and at Aurora-2 was less than 500 nM throughout.

For `Nc1nn2cc(-c3ccc(C(=O)NC4CCCO4)cn3)cnc2c1-c1ccccn1` (stereo not drawn) [Compound V-96], the Ki (in general, the equilibrium dissociation constant of an inhibitor or competing ligand from its target) on c-Met is less than 500 nM; on Aurora-2, 500 to 5000 nM.

For the compound `CC(C)CN(C)C(=O)c1ccc(-c2cnc3c(-c4ccccn4)c(N)nn3c2)nc1` [Compound V-97], the Ki on c-Met and on Aurora-2 was less than 500 nM each time.

`CCN(CC)C(=O)c1ccc(-c2cnc3c(-c4ccccn4)c(N)nn3c2)nc1` [Compound V-98]: the Ki at c-Met and at Aurora-2 was less than 500 nM throughout.

In the case of `CN1CCC(N(C)C(=O)c2cccc(-c3cnc4c(-c5ccccn5)c(N)nn4c3)n2)CC1` [Compound V-101], the values for the inhibition constant (Ki) on c-Met and at Aurora-2 were less than 500 nM and 500 to 5000 nM, respectively.

As to `CCN1CCN(C(=O)c2cccc(-c3cnc4c(-c5ccccn5)c(N)nn4c3)n2)CC1` [Compound V-102], the Ki at c-Met is less than 500 nM; on Aurora-2, 500 to 5000 nM.

Take `Nc1nn2cc(-c3cccc(C(=O)N4CCC(N)CC4)n3)cnc2c1-c1ccccn1` [Compound V-104]: the Ki at c-Met was less than 500 nM; at Aurora-2, 500 to 5000 nM.

Take `C#CCN(C)C(=O)c1cccc(-c2cnc3c(-c4ccccn4)c(N)nn3c2)n1` [Compound V-106]: the values for the Ki on c-Met and at Aurora-2 were less than 500 nM and 500 to 5000 nM, respectively.

In the case of `Nc1nn2cc(-c3cccc(C(=O)N4CCCC4CO)n3)cnc2c1-c1ccccn1` (stereo not drawn) [Compound V-112], the Ki on c-Met is less than 500 nM; on Aurora-2 it was 500 to 5000 nM.

`CN(CCC#N)C(=O)c1cccc(-c2cnc3c(-c4ccccn4)c(N)nn3c2)n1` [Compound V-114]: the Ki at c-Met was less than 500 nM; at Aurora-2, 500 to 5000 nM.

For the compound `CCN(C)C(=O)c1cccc(-c2cnc3c(-c4ccccn4)c(N)nn3c2)n1` [Compound V-115], the Ki on c-Met is less than 500 nM; at Aurora-2, 500 to 5000 nM.

With `CCN(CCC#N)C(=O)c1cccc(-c2cnc3c(-c4ccccn4)c(N)nn3c2)n1` [Compound V-116], the Ki at c-Met is less than 500 nM; at Aurora-2, 500 to 5000 nM.

As for `CCN(CC)CCN(C)C(=O)c1cccc(-c2cnc3c(-c4ccccn4)c(N)nn3c2)n1` [Compound V-124], the Ki is less than 500 nM at c-Met and 500 to 5000 nM at Aurora-2.

With `CCN(CC)C(=O)c1cccc(-c2cnc3c(-c4ccccn4)c(N)nn3c2)n1` [Compound V-127], the Ki at c-Met was less than 500 nM; at Aurora-2, 500 to 5000 nM.

As to `COCCCN1CCN(C(=O)c2ccc(-c3cnc4c(-c5ccccn5)c(N)nn4c3)nc2)CC1` [Compound V-129], the Ki at c-Met and on Aurora-2 was less than 500 nM throughout.

Take `CN(CCCN)C(=O)c1ccc(-c2cnc3c(-c4ccccn4)c(N)nn3c2)nc1` [Compound V-130]: the values for the Ki at c-Met and on Aurora-2 were less than 500 nM and 500 to 5000 nM, respectively.

For `Cc1ccc(-c2c(N)nn3cc(-c4ccncc4)cnc23)nc1` [Compound V-132], the figures for the Ki on c-Met and on Aurora-2 were less than 500 nM and 500 to 5000 nM, respectively.

On to `Cc1ccnc(-c2c(N)nn3cc(-c4ccncc4)cnc23)c1` [Compound V-133], for which the Ki on c-Met and on Aurora-2 was less than 500 nM in each case.

Regarding `Nc1nn2cc(-c3ccncc3)cnc2c1-c1ncccc1OCc1ccccc1` [Compound V-134], the Ki at c-Met and on Aurora-2 was 500 to 5000 nM each time.

On to `Cc1cccnc1-c1c(N)nn2cc(-c3ccncc3)cnc12` [Compound V-135], for which the Ki at c-Met and on Aurora-2 was 500 to 5000 nM in each case.

Regarding `COC(=O)C1CCCN1C(=O)c1cccc(-c2cnc3c(-c4ccccn4)c(N)nn3c2)n1` (stereo not drawn) [Compound V-139], the Ki at c-Met was less than 500 nM; on Aurora-2, 500 to 5000 nM.

For the compound `CC(C)N1CCN(c2ccc(-c3cnc4c(-c5ccccn5)c(N)nn4c3)cn2)CC1` [Compound V-146], the figures for the inhibition constant (Ki) at c-Met and on Aurora-2 were less than 500 nM and 500 to 5000 nM, respectively.

In the case of `Nc1nn2cc(-c3ccc(N4CCNCC4)nc3)cnc2c1-c1ccccn1` [Compound V-151], the Ki at c-Met was less than 500 nM; on Aurora-2, 500 to 5000 nM.

Regarding `Nc1nn2cc(-c3ccc(N4CCC[C@H]4CN4CCCC4)nc3)cnc2c1-c1ccccn1` [Compound V-152], the Ki at c-Met is less than 500 nM; at Aurora-2, 500 to 5000 nM.

In the case of `Nc1nn2cc(-c3cccc(C(=O)N4CCC[C@H]4CN4CCCC4)n3)cnc2c1-c1ccccn1` [Compound V-154], the Ki on c-Met was less than 500 nM; on Aurora-2, 500 to 5000 nM.

Take `CN(CCCN)C(=O)c1cccc(-c2cnc3c(-c4ccccn4)c(N)nn3c2)n1` [Compound V-155]: the Ki was less than 500 nM on c-Met and 500 to 5000 nM at Aurora-2.

As to `COCCNc1ccc(-c2cnc3c(-c4ccccn4)c(N)nn3c2)cn1` [Compound V-156], the inhibitory constant (Ki) was less than 500 nM at c-Met and 500 to 5000 nM at Aurora-2.

As to `CN(C)CCNc1ccc(-c2cnc3c(-c4ccccn4)c(N)nn3c2)cn1` [Compound V-159], the Ki is less than 500 nM at c-Met and 500 to 5000 nM at Aurora-2.

As for `CN1CCCN(c2ccc(-c3cnc4c(-c5ccccn5)c(N)nn4c3)cn2)CC1` [Compound V-160], the Ki at c-Met was less than 500 nM; on Aurora-2, 500 to 5000 nM.

Regarding `Nc1nn2cc(-c3ccc(N4CCC(N)CC4)nc3)cnc2c1-c1ccccn1` [Compound V-165], the Ki at c-Met and on Aurora-2 was less than 500 nM in each case.

Take `CCN1CCN(c2ccc(-c3cnc4c(-c5ccccn5)c(N)nn4c3)cn2)CC1` [Compound V-166]: the values for the Ki on c-Met and on Aurora-2 were less than 500 nM and 500 to 5000 nM, respectively.

Regarding `CCN(CC)CCN(C)c1ccc(-c2cnc3c(-c4ccccn4)c(N)nn3c2)cn1` [Compound V-173], the Ki at c-Met was less than 500 nM; at Aurora-2, 500 to 5000 nM.

On to `Nc1nn2cc(-c3cccc(C(=O)N4CCC[C@@H]4CN4CCCC4)n3)cnc2c1-c1ccccn1` [Compound V-175], for which the Ki at c-Met is less than 500 nM; at Aurora-2, 500 to 5000 nM.

`Nc1nn2cc(-c3ccc(N4CCC[C@@H]4CN4CCCC4)nc3)cnc2c1-c1ccccn1` [Compound V-176]: the values for the Ki at c-Met and at Aurora-2 were less than 500 nM and 500 to 5000 nM, respectively.

Regarding `Nc1nn2cc(-c3ccc(C(=O)N4CCC[C@H]4CN4CCCC4)cn3)cnc2c1-c1ccccn1` [Compound V-177], the Ki on c-Met and at Aurora-2 was less than 500 nM each time.

As to `Cc1cccc(-c2c(N)nn3cc(-c4ccncc4)cnc23)n1` [Compound V-178], the Ki was 500 to 5000 nM at c-Met and less than 500 nM at Aurora-2.

Turning to `Nc1nn2cc(-c3ccncc3)cnc2c1-c1cc(N2CCCCC2)ncn1` [Compound V-179], the Ki on c-Met and on Aurora-2 was less than 500 nM throughout.

For `CCN(CC)c1cc(-c2c(N)nn3cc(-c4ccncc4)cnc23)ncn1` [Compound V-180], the Ki on c-Met and on Aurora-2 was less than 500 nM each time.

For the compound `CNc1cc(-c2c(N)nn3cc(-c4ccncc4)cnc23)ncn1` [Compound V-181], the Ki on c-Met and at Aurora-2 was less than 500 nM throughout.

On to `CC(C)Nc1cc(-c2c(N)nn3cc(-c4ccncc4)cnc23)ncn1` [Compound V-182], for which the Ki on c-Met and on Aurora-2 was less than 500 nM each time.

Consider `Nc1nn2cc(-c3ccncc3)cnc2c1-c1cc(NC2CCCCC2)ncn1` [Compound V-183], for which the Ki at c-Met and at Aurora-2 was less than 500 nM in each case.

As to `Nc1nn2cc(-c3ccncc3)cnc2c1-c1cc(NCC2CCCCC2)ncn1` [Compound V-184], the Ki on c-Met and on Aurora-2 was less than 500 nM in each case.

`CC(C)CNc1cc(-c2c(N)nn3cc(-c4ccncc4)cnc23)ncn1` [Compound V-185]: the Ki on c-Met and at Aurora-2 was less than 500 nM each time.

For the compound `CN(C)CCN(C)C(=O)c1ccc(-c2cnc3c(-c4ccccn4)c(N)nn3c2)cc1` [Compound V-188], the Ki at c-Met and at Aurora-2 was less than 500 nM throughout.

For the compound `CNCCN(C)C(=O)c1cccc(-c2cnc3c(-c4ccccn4)c(N)nn3c2)c1` [Compound V-189], the Ki was less than 500 nM at c-Met and 500 to 5000 nM at Aurora-2.

For `CNCCCN(C)C(=O)c1cccc(-c2cnc3c(-c4ccccn4)c(N)nn3c2)c1` [Compound V-190], the Ki at c-Met is less than 500 nM; on Aurora-2, 500 to 5000 nM.

Take `CNCCCN(C)C(=O)c1ccc(-c2cnc3c(-c4ccccn4)c(N)nn3c2)cc1` [Compound V-191]: the Ki at c-Met and on Aurora-2 was less than 500 nM in each case.

For the origin of these results see patent US7528138B2, “Pyrazolo[1,5-a]pyrimidines useful as inhibitors of protein kinases” (Vertex Pharmaceuticals Incorporated, priority 2004, dated 2009).
